Test results as given in patent US20110269758A1, “NAPHTHYRIDINONES AS PROTEIN KINASE INHIBITORS” (MERCK PATENT GMBH, priority 2008, published 2011).

Legend:
Aurora Kinase A = molecular target: T1, Aurora Kinase A (Homo sapiens, UniProt O14965); assay: Biochemical enzyme assay for Aurora A activity (Caliper LC3000 / Desktop Profiler mobility shift); settings: GST-Aurora A, 15 μM ATP, 90 min at 25° C.; LC3000 or Desktop Profiler; read-out: Aurora Kinase A IC50
T1 construct: full length Aurora A (1-403 amino acids); purchased Carna Biosciences 05-101
T1 sequence (O14965 1-403): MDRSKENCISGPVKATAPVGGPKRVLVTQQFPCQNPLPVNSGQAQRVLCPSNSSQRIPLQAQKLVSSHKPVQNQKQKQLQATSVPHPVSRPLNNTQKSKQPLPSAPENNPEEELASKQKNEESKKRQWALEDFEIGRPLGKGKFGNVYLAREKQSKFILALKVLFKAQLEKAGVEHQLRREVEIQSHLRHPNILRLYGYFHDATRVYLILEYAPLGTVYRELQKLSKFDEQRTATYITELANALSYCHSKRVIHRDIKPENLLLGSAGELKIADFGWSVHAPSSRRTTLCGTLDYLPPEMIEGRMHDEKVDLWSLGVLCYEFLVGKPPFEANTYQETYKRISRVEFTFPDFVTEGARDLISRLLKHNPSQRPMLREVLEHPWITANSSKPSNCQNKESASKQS
Protocol: (§1) The Aurora assays described here were performed on two Caliper Life Sciences systems, the LC3000 and the Desktop Profiler. These provide data on enzyme activity via measurement of the relative amounts of phosphorylated or unphosphorylated fluorescently labelled substrate peptide at the end of an enzymatic reaction. These different states of peptide are resolved by applying a potential difference across the sample. The presence of a charged phosphate group on the product (as opposed to the substrate) causes a different peptide mobility between the two peptides. This is visualized by excitation of a fluorescent label on the substrate and product peptides and represented as peaks within the analysis software.
In order to measure inhibitor activity of Aurora A inhibitors in the Caliper Life Sciences LC3000, a TTP Mosquito liquid handling instrument was used to place 0.25 μl of an appropriate concentration of inhibitor in 100% DMSO (for a dose response curve calculation) into each well of a 384-well plate.
The reaction was incubated for 90 min at 25° C., and then stopped by the addition of 70 μl of Stop buffer (100 mM HEPES pH 7.5, 0.015% Brij-35, 10 mM EDTA (Sigma, E7889)).
The plate was read on a Caliper LC 3000 in an Off-Chip mobility shift assay format, using the following parameters for a 12-sipper chip: screening pressure −1.8 psi, upstream voltage −2700, downstream voltage −1000. These conditions cause unphosphorylated substrate and phosphorylated product peptide to resolve as separate peaks allowing direct measurement of percentage of conversion of substrate to product.
(§2) The Desktop Profiler utilizes the same prinicipal as the LC 3000 for calculating percentage conversion of a substrate to product. Caliper Life Sciences provided proprietary flash frozen pre-made 384 well plates containing selected kinases. Each column in the 384 well plate contained a particular selected kinase. A second plate, the ‘substrate plate’ contained a mix of fluorescently labeled peptide substrate and ATP. These were arranged in columns so that transfer for substrate plate to enzyme plate provided the correct enzyme with the correct substrate/ATP concentration.
(§3) Compounds were added to a thawed enzyme plate in the desired format, in single concentrations. Reactions were initiated by transfer of the substrate/ATP mix from the substrate plate. The enzyme plate was incubated for 90 mins at 25° C. The reaction was stopped by addition of 70 μl of Stop Buffer (100 mM HEPES pH 7.5, 0.015% Brij-35, 10 mM EDTA (Sigma, E7889)).
Plates were read in a manner identical to that of the LC3000, and the ratio between substrate and product peaks provided the activity of the enzyme in that well.

Aurora Kinase B = Aurora Kinase B (Homo sapiens, UniProt Q96GD4); assay: Biochemical enzyme assay for Aurora B activity (Caliper mobility shift); settings: LC3000 or Desktop Profiler
Sequence of Aurora Kinase B (Q96GD4 whole entry): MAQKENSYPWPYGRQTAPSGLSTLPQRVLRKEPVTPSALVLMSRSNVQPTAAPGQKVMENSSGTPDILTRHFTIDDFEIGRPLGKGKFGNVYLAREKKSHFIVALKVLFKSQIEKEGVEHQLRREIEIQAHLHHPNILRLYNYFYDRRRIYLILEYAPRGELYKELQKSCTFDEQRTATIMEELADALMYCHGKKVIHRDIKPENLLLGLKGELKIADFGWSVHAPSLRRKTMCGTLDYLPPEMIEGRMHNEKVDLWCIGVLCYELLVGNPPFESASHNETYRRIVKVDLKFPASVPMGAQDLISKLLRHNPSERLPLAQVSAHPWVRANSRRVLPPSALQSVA
Protocol: as §1, §2, §3
Plates were read in a manner identical to that of the LC3000, and the ratio between substrate and product peaks provided the activity of the enzyme in that well. This was best represented by a plate heat map which colors each well by percent inhibition as compared to positive and negative controls (no inhibitors and no ATP respectively).

[1] = system: cyclin-dependent kinases (CDKs) and Aurora kinases; settings: cited from earlier work
[2] = system: tumor cells of various origins; settings: cited from earlier work
human tumor types = settings: diverse range of human tumor types; cited from earlier work
[3] = system: leukemia, colon and pancreatic tumors; settings: variety of in vivo xenograft models, well-tolerated doses; cited from earlier work

SMILES	IC50 (Aurora Kinase A) [µM]	IC50 (Aurora Kinase B) [µM]	further results
Cc1cc(=O)[nH]c2nccc(Nc3ccc(NC(=O)c4ccccc4)cc3)c12 [Compound 94, N-[4-(5-Methyl-7-oxo-7,8-dihydro-[1,8]naphthyridin-4-ylamino)-phenyl]-benzamide]	0.001 to 0.3	0.001 to 0.3	
Cc1cc(=O)[nH]c2nccc(Nc3ccc(NC(=O)c4ccc(F)cc4C(F)(F)F)cc3)c12 [Compound 95, 4-Fluoro-N-[4-(5-methyl-7-oxo-7,8-dihydro-[1,8]naphthyridin-4-ylamino)-phenyl]-2 trifluoromethyl-benzamide]	0.001 to 0.3	0.001 to 0.3	
O=C(Nc1ccc(Nc2ccnc3[nH]c(=O)c(F)cc23)cc1)c1ccc(F)cc1C(F)(F)F [Compound 96, 4-Fluoro-N-[4-(6-fluoro-7-oxo-7,8-dihydro-[1,8]naphthyridin-4-ylamino)-phenyl]-2 trifluoromethyl-benzamide]	0.001 to 0.3	0.001 to 0.3	
Nc1nc(Nc2ccc(S(N)(=O)=O)cc2)nn1C(=O)c1c(F)cccc1F [JNJ-7706621]			inhibition of CDKs and Aurora kinases [1]: potent inhibition; proliferation of tumor cells [2]: selectively blocked proliferation
Cc1cc(Nc2cc(N3CCN(C)CC3)nc(Sc3ccc(NC(=O)C4CC4)cc3)n2)n[nH]1 [VX-680]			effect on cell-cycle progression and apoptosis (human tumor types): blocks cell-cycle progression and induces apoptosis; inhibition of tumor growth [3]: profound inhibition of tumor growth
